Calls of active or inactive are those of the source. Cut-off read from the data, not from the text of the source, for most assays here: actives have a measured Kd and inactives only a lower limit.
How the values were obtained:
[1] = target: Calcium/calmodulin-dependent protein kinase type II subunit delta (Homo sapiens, UniProt Q13557)
[2] = target: T1, Cysteine--tRNA ligase, cytoplasmic (Homo sapiens, UniProt P49589)
T1 sequence (P49589 whole entry): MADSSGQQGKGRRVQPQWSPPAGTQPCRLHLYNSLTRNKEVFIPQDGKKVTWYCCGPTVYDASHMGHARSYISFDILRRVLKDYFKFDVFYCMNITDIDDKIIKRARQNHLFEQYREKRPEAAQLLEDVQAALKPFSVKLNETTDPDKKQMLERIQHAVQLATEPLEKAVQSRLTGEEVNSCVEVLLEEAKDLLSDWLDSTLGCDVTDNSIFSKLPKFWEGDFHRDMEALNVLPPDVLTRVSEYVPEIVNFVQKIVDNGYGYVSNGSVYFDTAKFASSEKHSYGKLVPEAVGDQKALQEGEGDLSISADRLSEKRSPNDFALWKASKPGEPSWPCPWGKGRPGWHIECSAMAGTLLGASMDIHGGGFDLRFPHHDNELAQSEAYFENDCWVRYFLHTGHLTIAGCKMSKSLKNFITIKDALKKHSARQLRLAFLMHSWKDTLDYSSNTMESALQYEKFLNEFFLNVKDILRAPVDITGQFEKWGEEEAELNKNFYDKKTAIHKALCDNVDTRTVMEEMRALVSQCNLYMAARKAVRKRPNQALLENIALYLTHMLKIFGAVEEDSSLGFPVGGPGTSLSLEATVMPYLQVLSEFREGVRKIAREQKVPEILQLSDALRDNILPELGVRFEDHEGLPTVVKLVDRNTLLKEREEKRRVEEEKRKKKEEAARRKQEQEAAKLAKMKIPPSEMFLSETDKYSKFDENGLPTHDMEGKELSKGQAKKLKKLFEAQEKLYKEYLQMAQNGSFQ

[3] = target: Casein kinase I isoform alpha (Homo sapiens, UniProt P48729)
Chain of Casein kinase I isoform alpha (P48729 whole entry, canonical isoform): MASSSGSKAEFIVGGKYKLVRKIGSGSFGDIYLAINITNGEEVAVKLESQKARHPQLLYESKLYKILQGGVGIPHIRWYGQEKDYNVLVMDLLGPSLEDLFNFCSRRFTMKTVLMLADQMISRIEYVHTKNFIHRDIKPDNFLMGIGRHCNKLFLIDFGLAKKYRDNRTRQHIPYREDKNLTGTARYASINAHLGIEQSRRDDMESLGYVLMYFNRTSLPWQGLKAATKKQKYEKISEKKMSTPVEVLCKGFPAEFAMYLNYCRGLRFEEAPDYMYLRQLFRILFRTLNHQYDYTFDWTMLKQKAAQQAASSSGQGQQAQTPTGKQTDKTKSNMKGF

[4] = target: Ribosomal protein S6 kinase alpha-6 (Homo sapiens, UniProt Q9UK32)
Chain of Ribosomal protein S6 kinase alpha-6 (Q9UK32 whole entry, canonical isoform): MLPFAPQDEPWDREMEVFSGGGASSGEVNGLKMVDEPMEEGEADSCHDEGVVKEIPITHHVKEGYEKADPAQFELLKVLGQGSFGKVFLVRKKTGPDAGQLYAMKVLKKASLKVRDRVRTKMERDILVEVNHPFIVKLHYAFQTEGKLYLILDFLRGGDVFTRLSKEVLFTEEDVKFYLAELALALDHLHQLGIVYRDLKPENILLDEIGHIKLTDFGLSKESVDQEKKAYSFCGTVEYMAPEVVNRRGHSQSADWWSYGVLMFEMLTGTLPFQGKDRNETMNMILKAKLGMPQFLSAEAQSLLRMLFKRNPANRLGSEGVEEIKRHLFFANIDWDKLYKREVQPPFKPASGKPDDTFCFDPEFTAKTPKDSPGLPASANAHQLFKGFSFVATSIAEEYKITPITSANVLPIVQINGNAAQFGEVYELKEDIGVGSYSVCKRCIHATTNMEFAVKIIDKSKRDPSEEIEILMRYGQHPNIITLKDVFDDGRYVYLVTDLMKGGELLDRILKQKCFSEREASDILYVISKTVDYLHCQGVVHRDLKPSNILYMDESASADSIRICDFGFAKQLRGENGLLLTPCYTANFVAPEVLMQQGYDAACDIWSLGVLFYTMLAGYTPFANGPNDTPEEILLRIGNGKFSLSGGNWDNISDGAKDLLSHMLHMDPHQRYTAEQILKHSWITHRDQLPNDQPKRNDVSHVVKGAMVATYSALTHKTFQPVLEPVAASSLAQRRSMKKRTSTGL

[5] = target: Casein kinase I isoform gamma-1 (Homo sapiens, UniProt Q9HCP0)
Chain of Casein kinase I isoform gamma-1 (Q9HCP0 whole entry, canonical isoform): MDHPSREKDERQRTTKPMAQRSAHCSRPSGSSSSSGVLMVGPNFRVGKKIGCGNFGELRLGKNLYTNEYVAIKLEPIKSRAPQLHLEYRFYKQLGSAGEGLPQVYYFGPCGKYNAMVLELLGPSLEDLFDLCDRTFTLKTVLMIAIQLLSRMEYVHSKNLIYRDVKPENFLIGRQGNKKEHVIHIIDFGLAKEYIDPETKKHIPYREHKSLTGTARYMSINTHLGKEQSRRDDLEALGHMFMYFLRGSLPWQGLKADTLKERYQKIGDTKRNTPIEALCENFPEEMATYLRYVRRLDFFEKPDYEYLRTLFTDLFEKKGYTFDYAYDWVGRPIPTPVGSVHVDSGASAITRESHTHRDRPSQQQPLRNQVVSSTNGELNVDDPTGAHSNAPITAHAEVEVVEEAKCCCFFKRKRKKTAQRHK

[6] = target: T2, Serine/threonine-protein kinase TAO3 (Homo sapiens, UniProt Q9H2K8)
T2 sequence (Q9H2K8 whole entry): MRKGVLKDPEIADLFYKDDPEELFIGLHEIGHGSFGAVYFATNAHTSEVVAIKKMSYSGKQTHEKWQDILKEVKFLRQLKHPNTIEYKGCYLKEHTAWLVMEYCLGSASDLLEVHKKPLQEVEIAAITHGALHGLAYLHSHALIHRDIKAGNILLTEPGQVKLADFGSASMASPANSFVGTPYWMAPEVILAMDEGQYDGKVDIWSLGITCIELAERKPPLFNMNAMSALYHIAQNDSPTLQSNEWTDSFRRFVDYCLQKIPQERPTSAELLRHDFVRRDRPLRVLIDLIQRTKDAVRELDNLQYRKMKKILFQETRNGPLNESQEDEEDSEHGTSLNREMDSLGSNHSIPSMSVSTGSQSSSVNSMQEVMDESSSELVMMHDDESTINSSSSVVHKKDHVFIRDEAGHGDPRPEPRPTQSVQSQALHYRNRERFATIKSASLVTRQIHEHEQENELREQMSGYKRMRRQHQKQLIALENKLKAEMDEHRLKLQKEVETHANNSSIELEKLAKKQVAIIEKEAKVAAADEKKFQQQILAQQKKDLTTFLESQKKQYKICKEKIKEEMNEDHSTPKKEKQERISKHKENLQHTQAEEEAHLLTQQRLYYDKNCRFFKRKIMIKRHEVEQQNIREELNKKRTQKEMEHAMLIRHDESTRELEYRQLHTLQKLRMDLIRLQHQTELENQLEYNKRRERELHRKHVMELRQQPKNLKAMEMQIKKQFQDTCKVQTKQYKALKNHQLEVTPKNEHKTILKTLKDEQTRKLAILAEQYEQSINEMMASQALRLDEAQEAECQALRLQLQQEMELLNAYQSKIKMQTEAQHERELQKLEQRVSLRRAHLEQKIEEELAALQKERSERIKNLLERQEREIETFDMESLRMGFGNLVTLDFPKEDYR

[7] = target: Glycogen synthase kinase-3 alpha (Homo sapiens, UniProt P49840)
Chain of Glycogen synthase kinase-3 alpha (P49840 whole entry, the tested form may be a part): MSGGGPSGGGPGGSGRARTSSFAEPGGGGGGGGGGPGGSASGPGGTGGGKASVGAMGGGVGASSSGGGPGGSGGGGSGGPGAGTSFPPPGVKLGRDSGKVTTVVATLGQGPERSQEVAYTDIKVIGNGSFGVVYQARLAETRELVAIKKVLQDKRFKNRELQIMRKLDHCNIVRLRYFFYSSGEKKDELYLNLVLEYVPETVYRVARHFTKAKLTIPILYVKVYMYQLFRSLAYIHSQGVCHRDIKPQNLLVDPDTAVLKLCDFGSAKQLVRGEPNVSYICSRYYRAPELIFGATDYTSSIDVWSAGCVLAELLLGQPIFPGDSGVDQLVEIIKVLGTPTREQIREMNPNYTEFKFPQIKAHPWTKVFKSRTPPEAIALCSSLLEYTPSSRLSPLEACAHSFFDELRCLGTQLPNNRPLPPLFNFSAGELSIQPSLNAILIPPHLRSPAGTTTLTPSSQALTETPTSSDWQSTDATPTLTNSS

[8] = target: T3, Discoidin domain-containing receptor 2 (Homo sapiens, UniProt Q16832)
T3 sequence (Q16832 whole entry): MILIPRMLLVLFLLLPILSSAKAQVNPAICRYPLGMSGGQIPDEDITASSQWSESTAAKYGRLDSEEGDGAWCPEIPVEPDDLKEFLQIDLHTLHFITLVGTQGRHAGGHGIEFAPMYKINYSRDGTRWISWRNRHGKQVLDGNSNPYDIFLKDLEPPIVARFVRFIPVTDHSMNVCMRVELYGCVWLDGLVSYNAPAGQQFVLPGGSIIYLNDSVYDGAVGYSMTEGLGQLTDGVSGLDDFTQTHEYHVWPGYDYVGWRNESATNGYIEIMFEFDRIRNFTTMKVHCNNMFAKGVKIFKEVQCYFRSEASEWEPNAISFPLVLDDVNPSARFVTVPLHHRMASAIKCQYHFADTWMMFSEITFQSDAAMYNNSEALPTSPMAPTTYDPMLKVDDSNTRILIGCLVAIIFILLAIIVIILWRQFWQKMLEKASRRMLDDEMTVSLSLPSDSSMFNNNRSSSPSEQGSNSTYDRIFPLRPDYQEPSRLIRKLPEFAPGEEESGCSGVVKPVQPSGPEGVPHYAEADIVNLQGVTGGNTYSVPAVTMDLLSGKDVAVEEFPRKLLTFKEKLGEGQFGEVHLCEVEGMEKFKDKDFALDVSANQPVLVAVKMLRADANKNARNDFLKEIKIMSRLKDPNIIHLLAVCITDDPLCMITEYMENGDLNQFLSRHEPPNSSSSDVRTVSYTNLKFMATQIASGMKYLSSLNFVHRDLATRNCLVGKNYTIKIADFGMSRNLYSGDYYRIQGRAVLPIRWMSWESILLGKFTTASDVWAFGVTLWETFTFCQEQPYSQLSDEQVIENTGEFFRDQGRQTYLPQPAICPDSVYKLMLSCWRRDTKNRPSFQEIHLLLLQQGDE

dCTP pyrophosphatase 1 = target: T4, dCTP pyrophosphatase 1 (Homo sapiens, UniProt Q9H773)
T4 sequence (Q9H773 whole entry): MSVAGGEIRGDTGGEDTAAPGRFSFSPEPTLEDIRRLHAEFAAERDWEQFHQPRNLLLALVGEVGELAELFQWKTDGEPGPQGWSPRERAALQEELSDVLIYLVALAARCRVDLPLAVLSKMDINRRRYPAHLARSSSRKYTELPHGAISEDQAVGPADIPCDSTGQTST
Note: in the data inactive means no Kd found up to 30 µM.

Chain of Calcium/calmodulin-dependent protein kinase type II subunit delta (Q13557 whole entry): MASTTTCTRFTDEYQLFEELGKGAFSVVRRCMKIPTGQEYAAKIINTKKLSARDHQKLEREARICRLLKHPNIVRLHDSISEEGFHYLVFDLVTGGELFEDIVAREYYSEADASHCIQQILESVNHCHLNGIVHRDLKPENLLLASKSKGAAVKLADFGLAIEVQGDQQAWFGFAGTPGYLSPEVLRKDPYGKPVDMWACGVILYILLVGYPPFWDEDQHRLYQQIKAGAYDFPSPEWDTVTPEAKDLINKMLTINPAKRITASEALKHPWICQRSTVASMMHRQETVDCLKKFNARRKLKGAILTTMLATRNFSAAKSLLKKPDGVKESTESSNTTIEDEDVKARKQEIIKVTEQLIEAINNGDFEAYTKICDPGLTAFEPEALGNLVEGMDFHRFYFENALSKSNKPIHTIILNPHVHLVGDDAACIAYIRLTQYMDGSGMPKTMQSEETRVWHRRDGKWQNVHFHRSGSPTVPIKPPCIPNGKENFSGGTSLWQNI

| Structure (SMILES) | Kd [1] | Kd [2] | Kd [3] | Kd [4] | Kd [5] | Kd [6] | Kd [7] | Kd [8] | Kd (dCTP pyrophosphatase 1) |
| --- | --- | --- | --- | --- | --- | --- | --- | --- | --- |
| COC(=O)N[C@@H](C)CNc1nccc(-c2cn(C(C)C)nc2-c2cc(Cl)cc(NS(C)(=O)=O)c2F)n1 [ENCORAFENIB] | > 30 µM (inactive) | > 30 µM (inactive) | 3.33 µM (active) | > 30 µM (inactive) | > 30 µM (inactive) | 3.32 µM (active) | 5.26 µM (active) | > 30 µM (inactive) | > 30 µM (inactive) |
| CO[C@H]1C[C@@H]2CC[C@@H](C)[C@@](O)(O2)C(=O)C(=O)N2CCCC[C@H]2C(=O)O[C@H]([C@H](C)C[C@@H]2CC[C@@H](OCCO)[C@H](OC)C2)CC(=O)[C@H](C)/C=C(\C)[C@@H](O)[C@@H](OC)C(=O)[C@H](C)C[C@H](C)/C=C/C=C/C=C/1C [EVEROLIMUS] | > 30 µM (inactive) | > 30 µM (inactive) | > 30 µM (inactive) | > 30 µM (inactive) | > 30 µM (inactive) | > 30 µM (inactive) | > 30 µM (inactive) | > 30 µM (inactive) | > 30 µM (inactive) |
| COCCNCc1ccc(-c2cc3nccc(Oc4ccc(NC(=S)NC(=O)Cc5ccc(F)cc5)cc4F)c3s2)nc1 [GLESATINIB] | > 30 µM (inactive) | > 30 µM (inactive) | > 30 µM (inactive) | > 30 µM (inactive) | > 30 µM (inactive) | > 30 µM (inactive) | > 30 µM (inactive) | 1.49 µM (active) | > 30 µM (inactive) |
| CC[C@H](Nc1ncnc2[nH]cnc12)c1nc2cccc(F)c2c(=O)n1-c1ccccc1 [IDELALISIB] | > 30 µM (inactive) | > 30 µM (inactive) | > 30 µM (inactive) | > 30 µM (inactive) | > 30 µM (inactive) | > 30 µM (inactive) | > 30 µM (inactive) | > 30 µM (inactive) | > 30 µM (inactive) |
| COc1cc2nccc(Oc3ccc(NC(=O)NC4CC4)c(Cl)c3)c2cc1C(N)=O [LENVATINIB] | > 30 µM (inactive) | > 30 µM (inactive) | > 30 µM (inactive) | > 30 µM (inactive) | > 30 µM (inactive) | > 30 µM (inactive) | > 30 µM (inactive) | 0.218 µM (active) | > 30 µM (inactive) |
| O=C(O)[C@]1(Cc2cccc(Nc3nccs3)n2)CC[C@@H](Oc2cccc(Cl)c2F)CC1 [MK-5108] | > 30 µM (inactive) | > 30 µM (inactive) | > 30 µM (inactive) | > 30 µM (inactive) | > 30 µM (inactive) | > 30 µM (inactive) | > 30 µM (inactive) | > 30 µM (inactive) | > 30 µM (inactive) |
| Cc1ccc(-n2nc(C(C)(C)C)cc2NC(=O)NCc2cc(F)ccc2Oc2ccc3c(cnn3CCO)c2)cc1 [PEXMETINIB] | > 30 µM (inactive) | > 30 µM (inactive) | > 30 µM (inactive) | > 30 µM (inactive) | > 30 µM (inactive) | > 30 µM (inactive) | > 30 µM (inactive) | 1.14 µM (active) | > 30 µM (inactive) |
| CNC(=O)c1cc(Oc2ccc(NC(=O)Nc3ccc(Cl)c(C(F)(F)F)c3)c(F)c2)ccn1 [REGORAFENIB] | > 30 µM (inactive) | > 30 µM (inactive) | > 30 µM (inactive) | > 30 µM (inactive) | > 30 µM (inactive) | > 30 µM (inactive) | > 30 µM (inactive) | 0.421 µM (active) | > 30 µM (inactive) |
| CN(C)C(=O)c1cc2cnc(Nc3ccc(N4CCNCC4)cn3)nc2n1C1CCCC1 [RIBOCICLIB] | 0.293 µM (active) | > 30 µM (inactive) | > 30 µM (inactive) | > 30 µM (inactive) | > 30 µM (inactive) | > 30 µM (inactive) | > 30 µM (inactive) | > 30 µM (inactive) | > 30 µM (inactive) |
| COc1cc(OC)c(/C=C/S(=O)(=O)Cc2ccc(OC)c(NCC(=O)O)c2)c(OC)c1 [RIGOSERTIB] | > 30 µM (inactive) | > 30 µM (inactive) | > 30 µM (inactive) | > 30 µM (inactive) | > 30 µM (inactive) | > 30 µM (inactive) | > 30 µM (inactive) | > 30 µM (inactive) | > 30 µM (inactive) |

Source: ChEMBL document CHEMBL3991601, “The target landscape of clinical kinase drugs” (Science, 2017)
